Key:
[1] = target: Aurora kinase C (Homo sapiens) (UniProt Q9UQB9); conditions: Compound concentration 1000.0 nM
[2] = target: Tyrosine-protein kinase BTK (Homo sapiens) (UniProt Q06187); conditions: Compound concentration 1000.0 nM
[3] = target: Serine/threonine-protein kinase 32C (Homo sapiens) (UniProt Q86UX6); conditions: Compound concentration 1000.0 nM
[4] = target: Serine/threonine-protein kinase MARK2 (Homo sapiens) (UniProt Q7KZI7); conditions: Compound concentration 1000.0 nM
[5] = target: STE20/SPS1-related proline-alanine-rich protein kinase (Homo sapiens) (UniProt Q9UEW8); conditions: Compound concentration 1000.0 nM
[6] = target: Cyclin-dependent kinase 4 (Homo sapiens) (UniProt P11802); conditions: Compound concentration 1000.0 nM
[7] = target: Serine/threonine-protein kinase B-raf (Homo sapiens) (UniProt P15056); conditions: Compound concentration 1000.0 nM
[8] = target: Serine/threonine-protein kinase Nek10 (Homo sapiens) (UniProt Q6ZWH5); conditions: Compound concentration 1000.0 nM
[9] = target: Phosphatidylinositol 4,5-bisphosphate 3-kinase catalytic subunit gamma isoform (Homo sapiens) (UniProt P48736); conditions: Compound concentration 1000.0 nM
[10] = target: Non-receptor tyrosine-protein kinase TYK2 (Homo sapiens) (UniProt P29597); conditions: Compound concentration 1000.0 nM
[11] = target: Ribosomal protein S6 kinase alpha-5 (Homo sapiens) (UniProt O75582); conditions: Compound concentration 1000.0 nM
[12] = target: Activin receptor type-2A (Homo sapiens) (UniProt P27037); conditions: Compound concentration 1000.0 nM
[13] = target: Focal adhesion kinase 1 (Homo sapiens) (UniProt Q05397); conditions: Compound concentration 1000.0 nM
[14] = target: MAP kinase-interacting serine/threonine-protein kinase 1 (Homo sapiens) (UniProt Q9BUB5); conditions: Compound concentration 1000.0 nM
[15] = target: Non-receptor tyrosine-protein kinase TNK1 (Homo sapiens) (UniProt Q13470); conditions: Compound concentration 1000.0 nM
[16] = target: Mitogen-activated protein kinase kinase kinase 10 (Homo sapiens) (UniProt Q02779); conditions: Compound concentration 1000.0 nM
[17] = target: Serine/threonine-protein kinase PAK 2 (Homo sapiens) (UniProt Q13177); conditions: Compound concentration 1000.0 nM
[18] = target: Atypical kinase COQ8A, mitochondrial (Homo sapiens) (UniProt Q8NI60); conditions: Compound concentration 1000.0 nM
[19] = target: Cytoplasmic tyrosine-protein kinase BMX (Homo sapiens) (UniProt P51813); conditions: Compound concentration 1000.0 nM
[20] = target: Histamine H4 receptor (Homo sapiens) (UniProt Q9H3N8); conditions: Compound concentration 10.0 uM
[21] = target: Cyclin-dependent kinase 17 (Homo sapiens) (UniProt Q00537); conditions: Compound concentration 1000.0 nM
[22] = target: Tyrosine-protein kinase CSK (Homo sapiens) (UniProt P41240); conditions: Compound concentration 1000.0 nM
[23] = target: Phosphatidylinositol 4-phosphate 5-kinase type-1 gamma (Homo sapiens) (UniProt O60331); conditions: Compound concentration 1000.0 nM
[24] = system: Proto-oncogene tyrosine-protein kinase receptor Ret (Homo sapiens), P07949 [V804M]; conditions: Compound concentration 1000.0 nM
[25] = system: Tyrosine-protein kinase ABL1 (Homo sapiens), P00519 [Q252H]; conditions: Compound concentration 1000.0 nM
[26] = target: Serine/threonine-protein kinase ULK3 (Homo sapiens) (UniProt Q6PHR2); conditions: Compound concentration 1000.0 nM
[27] = target: Phosphatidylinositol 5-phosphate 4-kinase type-2 gamma (Homo sapiens) (UniProt Q8TBX8); conditions: Compound concentration 1000.0 nM
[28] = target: Dual specificity mitogen-activated protein kinase kinase 1 (Homo sapiens) (UniProt Q02750); conditions: Compound concentration 1000.0 nM
[29] = species on record: Rattus norvegicus; conditions: Compound concentration 10.0 uM
[30] = system: Epidermal growth factor receptor (Homo sapiens), P00533 [L858R]; conditions: Compound concentration 1000.0 nM
[31] = target: Ribosomal protein S6 kinase alpha-2 (Homo sapiens) (UniProt Q15349); conditions: Compound concentration 1000.0 nM
[32] = system: Fibroblast growth factor receptor 3 (Homo sapiens), P22607 [G697C]; conditions: Compound concentration 1000.0 nM
[33] = target: Maternal embryonic leucine zipper kinase (Homo sapiens) (UniProt Q14680); conditions: Compound concentration 1000.0 nM
[34] = system: Tyrosine-protein kinase ABL1 (Homo sapiens), P00519 [T315I]; conditions: Compound concentration 1000.0 nM
[35] = target: Dual specificity tyrosine-phosphorylation-regulated kinase 1B (Homo sapiens) (UniProt Q9Y463); conditions: Compound concentration 1000.0 nM
[36] = target: Serine/threonine-protein kinase TBK1 (Homo sapiens) (UniProt Q9UHD2); conditions: Compound concentration 1000.0 nM
[37] = target: Alpha-2B adrenergic receptor (Homo sapiens) (UniProt P18089); conditions: Compound concentration 10.0 uM
[38] = target: Microtubule-associated serine/threonine-protein kinase 1 (Homo sapiens) (UniProt Q9Y2H9); conditions: Compound concentration 1000.0 nM
[39] = target: Serine/threonine-protein kinase Sgk1 (Homo sapiens) (UniProt O00141); conditions: Compound concentration 1000.0 nM
[40] = target: Phosphatidylinositol 4-kinase beta (Homo sapiens) (UniProt Q9UBF8); conditions: Compound concentration 1000.0 nM
[41] = target: Serine/threonine-protein kinase RIO2 (Homo sapiens) (UniProt Q9BVS4); conditions: Compound concentration 1000.0 nM
[42] = target: Serine/threonine-protein kinase pim-3 (Homo sapiens) (UniProt Q86V86); conditions: Compound concentration 1000.0 nM
[43] = target: Phosphatidylinositol 3-kinase C2 domain-containing subunit gamma (Homo sapiens) (UniProt O75747); conditions: Compound concentration 1000.0 nM
[44] = system: Receptor-type tyrosine-protein kinase FLT3 (Homo sapiens), P36888 [UNDEFINED MUTATION]; conditions: Compound concentration 1000.0 nM
[45] = target: Kappa-type opioid receptor (Homo sapiens) (UniProt P41145); conditions: Compound concentration 10.0 uM
Sequence of Kappa-type opioid receptor (Homo sapiens) (P41145 whole entry): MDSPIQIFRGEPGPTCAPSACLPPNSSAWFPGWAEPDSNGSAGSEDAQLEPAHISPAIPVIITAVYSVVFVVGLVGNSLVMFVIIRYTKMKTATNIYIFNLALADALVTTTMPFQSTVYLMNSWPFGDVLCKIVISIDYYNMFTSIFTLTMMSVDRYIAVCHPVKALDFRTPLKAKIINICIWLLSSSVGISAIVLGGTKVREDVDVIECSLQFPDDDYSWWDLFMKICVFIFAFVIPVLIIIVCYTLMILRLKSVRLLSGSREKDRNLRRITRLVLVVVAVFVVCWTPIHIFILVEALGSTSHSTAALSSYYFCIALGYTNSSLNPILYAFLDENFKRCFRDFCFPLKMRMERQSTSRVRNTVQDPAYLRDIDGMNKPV

Sequence of Phosphatidylinositol 5-phosphate 4-kinase type-2 gamma (Homo sapiens) (Q8TBX8 whole entry): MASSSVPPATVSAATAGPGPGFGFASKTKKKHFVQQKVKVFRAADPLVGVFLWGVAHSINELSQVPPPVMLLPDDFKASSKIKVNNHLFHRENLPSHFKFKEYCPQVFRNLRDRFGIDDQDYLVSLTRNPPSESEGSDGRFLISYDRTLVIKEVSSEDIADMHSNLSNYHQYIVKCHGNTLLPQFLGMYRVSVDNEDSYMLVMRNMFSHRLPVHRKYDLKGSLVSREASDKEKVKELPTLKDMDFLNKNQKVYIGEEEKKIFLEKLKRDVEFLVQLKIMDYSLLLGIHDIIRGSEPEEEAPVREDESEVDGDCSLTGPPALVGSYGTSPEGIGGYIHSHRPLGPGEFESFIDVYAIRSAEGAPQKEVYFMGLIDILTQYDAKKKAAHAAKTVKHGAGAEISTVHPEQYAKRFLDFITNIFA
Sequence of Tyrosine-protein kinase BTK (Homo sapiens) (Q06187 whole entry): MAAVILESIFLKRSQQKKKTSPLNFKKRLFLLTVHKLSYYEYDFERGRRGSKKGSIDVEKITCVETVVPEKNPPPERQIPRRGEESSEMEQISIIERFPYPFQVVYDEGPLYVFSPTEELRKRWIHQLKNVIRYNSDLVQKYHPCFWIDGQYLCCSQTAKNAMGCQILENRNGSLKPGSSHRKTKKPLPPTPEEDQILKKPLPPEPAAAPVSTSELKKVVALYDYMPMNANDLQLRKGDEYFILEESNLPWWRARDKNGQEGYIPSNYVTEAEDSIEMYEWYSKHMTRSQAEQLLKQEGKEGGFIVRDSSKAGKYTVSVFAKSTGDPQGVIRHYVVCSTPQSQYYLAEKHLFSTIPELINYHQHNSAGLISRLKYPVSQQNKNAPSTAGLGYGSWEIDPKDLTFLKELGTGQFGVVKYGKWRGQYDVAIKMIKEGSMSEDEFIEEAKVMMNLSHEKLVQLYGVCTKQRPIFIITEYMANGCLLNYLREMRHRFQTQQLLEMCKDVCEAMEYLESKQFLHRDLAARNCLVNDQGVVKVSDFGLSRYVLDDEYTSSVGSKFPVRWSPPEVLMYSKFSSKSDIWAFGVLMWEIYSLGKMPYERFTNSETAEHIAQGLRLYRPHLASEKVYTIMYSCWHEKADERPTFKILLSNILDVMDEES
Sequence of Tyrosine-protein kinase CSK (Homo sapiens) (P41240 2-450 limits assumed): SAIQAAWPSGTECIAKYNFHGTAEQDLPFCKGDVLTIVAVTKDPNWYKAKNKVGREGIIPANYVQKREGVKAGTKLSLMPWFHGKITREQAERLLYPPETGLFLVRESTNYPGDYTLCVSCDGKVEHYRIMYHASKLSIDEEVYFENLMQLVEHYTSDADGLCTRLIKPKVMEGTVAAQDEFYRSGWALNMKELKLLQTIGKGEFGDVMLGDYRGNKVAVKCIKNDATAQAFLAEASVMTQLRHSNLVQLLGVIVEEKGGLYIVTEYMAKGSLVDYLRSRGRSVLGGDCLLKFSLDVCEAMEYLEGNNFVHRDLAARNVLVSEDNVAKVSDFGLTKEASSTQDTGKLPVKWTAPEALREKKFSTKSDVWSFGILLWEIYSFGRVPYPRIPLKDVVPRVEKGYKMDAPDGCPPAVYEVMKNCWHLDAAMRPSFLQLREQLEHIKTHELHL
Sequence of Serine/threonine-protein kinase RIO2 (Homo sapiens) (Q9BVS4 whole entry, looked up): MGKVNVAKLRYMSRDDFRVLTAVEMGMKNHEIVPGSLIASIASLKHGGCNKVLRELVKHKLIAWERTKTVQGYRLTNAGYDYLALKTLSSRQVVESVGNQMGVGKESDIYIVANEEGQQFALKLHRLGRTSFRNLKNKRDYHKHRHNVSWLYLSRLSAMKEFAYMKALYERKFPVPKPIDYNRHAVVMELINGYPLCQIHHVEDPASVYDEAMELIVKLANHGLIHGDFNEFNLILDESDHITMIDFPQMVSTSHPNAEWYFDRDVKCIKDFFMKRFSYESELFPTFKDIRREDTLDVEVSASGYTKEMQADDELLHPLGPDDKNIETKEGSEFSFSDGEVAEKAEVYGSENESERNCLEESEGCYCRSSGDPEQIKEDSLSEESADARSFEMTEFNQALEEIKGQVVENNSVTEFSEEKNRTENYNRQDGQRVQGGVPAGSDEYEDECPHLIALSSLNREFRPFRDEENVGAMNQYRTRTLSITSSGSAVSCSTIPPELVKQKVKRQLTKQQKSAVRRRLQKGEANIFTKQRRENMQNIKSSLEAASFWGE
Sequence of Non-receptor tyrosine-protein kinase TNK1 (Homo sapiens) (Q13470 whole entry): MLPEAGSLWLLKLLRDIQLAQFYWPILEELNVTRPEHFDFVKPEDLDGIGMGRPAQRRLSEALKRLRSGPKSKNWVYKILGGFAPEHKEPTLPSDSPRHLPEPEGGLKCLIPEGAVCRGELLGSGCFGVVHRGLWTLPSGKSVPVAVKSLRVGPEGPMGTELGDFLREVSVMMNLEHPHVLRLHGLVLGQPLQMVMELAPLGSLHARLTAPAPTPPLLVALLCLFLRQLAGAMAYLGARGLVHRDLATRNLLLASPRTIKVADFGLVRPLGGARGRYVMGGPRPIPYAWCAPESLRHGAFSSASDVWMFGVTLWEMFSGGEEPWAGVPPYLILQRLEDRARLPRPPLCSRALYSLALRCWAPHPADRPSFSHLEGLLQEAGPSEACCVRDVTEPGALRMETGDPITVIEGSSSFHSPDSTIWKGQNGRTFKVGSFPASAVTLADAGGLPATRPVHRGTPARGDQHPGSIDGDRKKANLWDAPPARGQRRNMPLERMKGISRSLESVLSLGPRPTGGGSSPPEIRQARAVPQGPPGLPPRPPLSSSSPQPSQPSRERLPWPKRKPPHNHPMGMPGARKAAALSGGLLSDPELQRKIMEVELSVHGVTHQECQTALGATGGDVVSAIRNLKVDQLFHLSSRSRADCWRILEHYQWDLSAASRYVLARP
Sequence of Non-receptor tyrosine-protein kinase TYK2 (Homo sapiens) (P29597 whole entry): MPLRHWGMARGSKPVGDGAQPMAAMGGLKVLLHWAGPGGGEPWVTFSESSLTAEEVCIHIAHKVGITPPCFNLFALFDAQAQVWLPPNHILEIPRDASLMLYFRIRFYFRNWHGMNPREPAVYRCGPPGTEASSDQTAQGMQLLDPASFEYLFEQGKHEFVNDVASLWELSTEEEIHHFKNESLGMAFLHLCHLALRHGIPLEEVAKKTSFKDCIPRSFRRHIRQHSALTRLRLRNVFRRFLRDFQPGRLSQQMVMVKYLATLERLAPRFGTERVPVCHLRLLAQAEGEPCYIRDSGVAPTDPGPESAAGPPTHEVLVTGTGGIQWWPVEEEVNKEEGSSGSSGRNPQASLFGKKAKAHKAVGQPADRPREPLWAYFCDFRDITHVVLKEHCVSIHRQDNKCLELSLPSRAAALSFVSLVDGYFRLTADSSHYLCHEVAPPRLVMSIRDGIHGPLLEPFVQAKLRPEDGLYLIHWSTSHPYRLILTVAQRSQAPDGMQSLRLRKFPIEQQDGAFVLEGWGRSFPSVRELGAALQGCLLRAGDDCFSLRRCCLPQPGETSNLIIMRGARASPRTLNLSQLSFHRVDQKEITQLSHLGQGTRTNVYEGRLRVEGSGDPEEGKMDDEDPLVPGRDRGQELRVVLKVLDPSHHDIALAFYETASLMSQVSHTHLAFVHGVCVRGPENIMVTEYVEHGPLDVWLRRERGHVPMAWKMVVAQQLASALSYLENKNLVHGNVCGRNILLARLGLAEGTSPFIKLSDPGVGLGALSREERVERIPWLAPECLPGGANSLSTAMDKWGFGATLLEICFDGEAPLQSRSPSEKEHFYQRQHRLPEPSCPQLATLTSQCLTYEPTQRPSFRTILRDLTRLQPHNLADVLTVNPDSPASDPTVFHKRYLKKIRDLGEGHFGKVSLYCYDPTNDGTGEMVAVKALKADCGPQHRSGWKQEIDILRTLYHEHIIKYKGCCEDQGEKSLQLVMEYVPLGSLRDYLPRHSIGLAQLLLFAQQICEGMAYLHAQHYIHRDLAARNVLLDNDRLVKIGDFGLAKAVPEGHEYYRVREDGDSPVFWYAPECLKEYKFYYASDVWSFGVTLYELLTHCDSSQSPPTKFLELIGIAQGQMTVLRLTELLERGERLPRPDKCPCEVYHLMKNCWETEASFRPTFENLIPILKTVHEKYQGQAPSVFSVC
Sequence of Ribosomal protein S6 kinase alpha-2 (Homo sapiens) (Q15349 whole entry): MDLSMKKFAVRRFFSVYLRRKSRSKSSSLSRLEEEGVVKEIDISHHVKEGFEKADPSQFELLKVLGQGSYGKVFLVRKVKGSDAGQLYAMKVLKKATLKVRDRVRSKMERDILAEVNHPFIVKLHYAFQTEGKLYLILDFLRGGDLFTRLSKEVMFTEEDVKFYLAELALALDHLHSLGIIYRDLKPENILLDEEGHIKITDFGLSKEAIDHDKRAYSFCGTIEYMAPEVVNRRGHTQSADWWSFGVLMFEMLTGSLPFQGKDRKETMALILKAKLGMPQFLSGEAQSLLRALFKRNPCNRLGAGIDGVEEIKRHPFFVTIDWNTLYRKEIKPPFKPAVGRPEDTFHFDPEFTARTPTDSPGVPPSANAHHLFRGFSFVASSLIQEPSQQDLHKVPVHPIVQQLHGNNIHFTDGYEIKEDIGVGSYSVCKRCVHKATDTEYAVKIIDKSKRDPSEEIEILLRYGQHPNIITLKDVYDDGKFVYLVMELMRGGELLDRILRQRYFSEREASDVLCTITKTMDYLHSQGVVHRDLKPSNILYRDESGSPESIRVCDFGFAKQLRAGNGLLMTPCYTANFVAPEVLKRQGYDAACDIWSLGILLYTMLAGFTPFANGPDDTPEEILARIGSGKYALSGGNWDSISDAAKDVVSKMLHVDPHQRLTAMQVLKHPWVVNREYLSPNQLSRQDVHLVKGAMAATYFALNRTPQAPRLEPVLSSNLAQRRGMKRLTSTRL

Q: For `CS(=O)(=O)NCC[C@H](NC(=O)c1cncc2c1cnn2-c1ccc(F)cc1)c1ccnc(S(C)(=O)=O)c1` [BI 9307], which residual activity [1] is on record?
A: The residual activity was 92%.

Q: What about the residual activity [2] of the same compound?
A: Its residual activity is 100%.

Q: What about the residual activity [3] of the same compound?
A: Its residual activity is 100%.

Q: And the residual activity [4]?
A: The residual activity was 75%.

Q: And the residual activity [5]?
A: Its residual activity is 80%.

Q: What about the residual activity [6] of the same compound?
A: The residual activity was 95%.

Q: What about the residual activity [7] of the same compound?
A: The residual activity was 79%.

Q: What about the residual activity [8] of the same compound?
A: The residual activity was 100%.

Q: And the residual activity [9]?
A: Its residual activity is 80%.

Q: What about the residual activity [10] of the same compound?
A: Its residual activity is 100%.

Q: What about the residual activity [11] of the same compound?
A: Its residual activity is 100%.

Q: And the residual activity [12]?
A: Its residual activity is 81%.

Q: What about the residual activity [13] of the same compound?
A: The residual activity was 93%.

Q: What about the residual activity [14] of the same compound?
A: The residual activity was 95%.

Q: What about the residual activity [15] of the same compound?
A: The residual activity was 100%.

Q: And the residual activity [16]?
A: The residual activity was 75%.

Q: And the residual activity [17]?
A: Its residual activity is 71%.

Q: And the residual activity [18]?
A: Its residual activity is 95%.

Q: What about the residual activity [19] of the same compound?
A: Its residual activity is 100%.

Q: What about the inhibition [20] of the same compound?
A: Its inhibition is -0.39%.

Q: What about the residual activity [21] of the same compound?
A: The residual activity was 100%.

Q: What about the residual activity [22] of the same compound?
A: Its residual activity is 98%.

Q: What about the residual activity [23] of the same compound?
A: The residual activity was 78%.

Q: And the residual activity [24]?
A: The residual activity was 96%.

Q: What about the residual activity [25] of the same compound?
A: The residual activity was 81%.

Q: What about the residual activity [26] of the same compound?
A: The residual activity was 100%.

Q: And the residual activity [27]?
A: Its residual activity is 0%.

Q: And the residual activity [28]?
A: The residual activity was 100%.

Q: What about the inhibition [29] of the same compound?
A: The inhibition was -5.04%.

Q: What about the residual activity [30] of the same compound?
A: The residual activity was 83%.

Q: What about the residual activity [31] of the same compound?
A: Its residual activity is 100%.

Q: And the residual activity [32]?
A: Its residual activity is 82%.

Q: And the residual activity [33]?
A: Its residual activity is 99%.

Q: What about the residual activity [34] of the same compound?
A: The residual activity was 100%.

Q: What about the residual activity [35] of the same compound?
A: The residual activity was 100%.

Q: And the residual activity [36]?
A: Its residual activity is 94%.

Q: And the inhibition [37]?
A: The inhibition was -2.26%.

Q: What about the residual activity [38] of the same compound?
A: The residual activity was 100%.

Q: What about the residual activity [39] of the same compound?
A: Its residual activity is 100%.

Q: And the residual activity [40]?
A: The residual activity was 100%.

Q: And the residual activity [41]?
A: Its residual activity is 100%.

Q: And the residual activity [42]?
A: Its residual activity is 100%.

Q: And the residual activity [43]?
A: Its residual activity is 86%.

Q: And the residual activity [44]?
A: Its residual activity is 100%.

Q: What about the inhibition [45] of the same compound?
A: Its inhibition is 0.74%.

Q: `CS(=O)(=O)c1cc(C2(NC(=O)c3cncc4c3cnn4-c3ccc(F)cc3)CC2)ccn1` [BI 639667] was tested. Which residual activity [1] did it give?
A: Its residual activity is 100%.

Q: And the residual activity [2]?
A: The residual activity was 97%.

Q: What about the residual activity [3] of the same compound?
A: Its residual activity is 81%.

Q: What about the residual activity [4] of the same compound?
A: The residual activity was 100%.

Q: And the residual activity [5]?
A: Its residual activity is 58%.

Q: What about the residual activity [6] of the same compound?
A: The residual activity was 100%.

Q: And the residual activity [7]?
A: The residual activity was 87%.

Q: What about the residual activity [8] of the same compound?
A: Its residual activity is 97%.

Q: What about the residual activity [9] of the same compound?
A: The residual activity was 82%.

Q: And the residual activity [10]?
A: The residual activity was 73%.

Q: And the residual activity [11]?
A: The residual activity was 61%.

Q: And the residual activity [12]?
A: Its residual activity is 98%.

Q: What about the residual activity [13] of the same compound?
A: Its residual activity is 100%.

Q: And the residual activity [14]?
A: The residual activity was 47%.

Q: And the residual activity [15]?
A: The residual activity was 80%.

Q: And the residual activity [16]?
A: Its residual activity is 99%.

Q: What about the residual activity [17] of the same compound?
A: The residual activity was 100%.

Q: What about the residual activity [18] of the same compound?
A: The residual activity was 100%.

Q: What about the residual activity [19] of the same compound?
A: The residual activity was 100%.

Q: And the inhibition [20]?
A: The inhibition was 1.36%.

Q: And the residual activity [21]?
A: Its residual activity is 79%.

Q: What about the residual activity [22] of the same compound?
A: The residual activity was 95%.

Q: What about the residual activity [23] of the same compound?
A: Its residual activity is 95%.

Q: And the residual activity [24]?
A: Its residual activity is 97%.

Q: And the residual activity [25]?
A: The residual activity was 80%.

Q: What about the residual activity [26] of the same compound?
A: Its residual activity is 100%.

Q: And the residual activity [27]?
A: The residual activity was 100%.

Q: And the residual activity [28]?
A: The residual activity was 81%.

Q: What about the inhibition [29] of the same compound?
A: The inhibition was 17.9%.

Q: And the residual activity [30]?
A: The residual activity was 100%.

Q: And the residual activity [31]?
A: The residual activity was 88%.

Q: What about the residual activity [32] of the same compound?
A: Its residual activity is 91%.

Q: And the residual activity [33]?
A: The residual activity was 100%.

Q: What about the residual activity [34] of the same compound?
A: The residual activity was 73%.

Q: What about the residual activity [35] of the same compound?
A: Its residual activity is 74%.

Q: And the residual activity [36]?
A: Its residual activity is 94%.

Q: What about the inhibition [37] of the same compound?
A: The inhibition was 13.2%.

Q: What about the residual activity [38] of the same compound?
A: The residual activity was 100%.

Q: And the residual activity [39]?
A: Its residual activity is 97%.

Q: What about the residual activity [40] of the same compound?
A: The residual activity was 96%.

Q: And the residual activity [41]?
A: Its residual activity is 94%.

Q: What about the residual activity [42] of the same compound?
A: The residual activity was 100%.

Q: What about the residual activity [43] of the same compound?
A: Its residual activity is 93%.

Q: And the residual activity [44]?
A: Its residual activity is 70%.

Q: What about the inhibition [45] of the same compound?
A: The inhibition was 1.68%.

From ChEMBL document CHEMBL4507278 (2021)
